US20110313677A1, “METHOD FOR DETERMINING THE LIVER PERFORMANCE OF A LIVING ORGANISM BY THE MEANS OF QUANTITATIVE MEASURING THE METABOLIZATION OF SUBSTRATES” (HUMEDICS GMBH, priority 2009, published 2011)

What was measured:
[1] = concentration changes of 13C methacetin and its dealkylation product Paracetamol in the blood followed by HPLC; settings: FIG. 8, blood
Description: Beside or additionally to the determination of the amount of a ^13C labelled metabolization product as for instance ^13CO2 in the exhalation air for estimating the liver performance it is also conceivable to follow the concentration decrease of the dealkylated product in the blood and to deduce from the corresponding slope kinetics a time constant tau.
The concentration changes of the administered ^13C labelled substrate, for instance ^13C methacetin and of the dealkylation product formed in the liver, for instance Paracetamol, are followed by the means of a suitable analytical method, for instance HPLC. […] The initial concentration changes can also be described here with a differential equation of first order.

[2] = molecular target: T1, CYP1A2 (Homo sapiens, UniProt P05177); experiment: breath test: 13CO2 increase in exhalation air after intravenous 13C methacetin (DOB slope kinetics, LiMAx); format: in vivo
T1 construct: follow directly and immediately the metabolization of the administered substrate by the enzymes present in the liver; from tissue; host or cells: liver of the living human subject (in vivo)
T1 sequence (P05177 1-516): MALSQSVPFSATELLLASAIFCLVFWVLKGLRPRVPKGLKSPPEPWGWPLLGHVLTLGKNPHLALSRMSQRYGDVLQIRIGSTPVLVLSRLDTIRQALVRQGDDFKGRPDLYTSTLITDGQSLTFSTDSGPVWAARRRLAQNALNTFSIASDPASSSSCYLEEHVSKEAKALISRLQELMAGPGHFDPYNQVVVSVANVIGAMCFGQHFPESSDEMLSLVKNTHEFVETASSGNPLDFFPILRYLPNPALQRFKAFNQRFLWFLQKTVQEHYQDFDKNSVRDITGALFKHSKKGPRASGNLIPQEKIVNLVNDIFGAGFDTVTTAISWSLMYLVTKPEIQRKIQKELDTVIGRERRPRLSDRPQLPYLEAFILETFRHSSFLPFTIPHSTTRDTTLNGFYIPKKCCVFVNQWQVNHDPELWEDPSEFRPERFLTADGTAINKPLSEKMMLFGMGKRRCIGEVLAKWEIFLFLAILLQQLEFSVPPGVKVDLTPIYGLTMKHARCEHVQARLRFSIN
Description: Thereby, the method according to an aspect of the invention comprises the steps of administering at least one ^13C labelled substrate, which is converted by the liver by releasing at least one ^13C labelled metabolization product, in particular ^13CO2 and the step of determining the amount of the at least one formed ^13C labelled metabolization product, in particular of the ^13CO2 amount, in the exhalation air over a definite time interval by the means of at least one measuring device with at least one evaluation unit. In an embodiment, the amount of the formed ^13C labelled metabolization product, in particular of ^13CO2 in the exhalation air, is proportional to the amount of the at least one administered substrate. The method according to an aspect of the invention is characterized in that it is now possible based on the determined measure points to describe the measured initial increase of the amount of the at least one ^13C labelled metabolization product, in particular of the ^13CO2 amount, in the exhalation air by the means of a differential equation of first order. Based on the solution of this differential equation of first order subsequently a maximum value Amax (also designated as DOBmax, whereby DOB stands for “delta over baseline”) and a time constant tau of the increase of the amount of the ^13C labelled metabolization product, in particular of the ^13CO2 amount, are determined.
wherein (t) stands for the metabolization dynamic of the at least one substrate, t for the measuring time, t0 for the start of the metabolization, tau for the time constant of the conversion and Amax for the maximum amplitude of the fitted function or the maximum concentration of the metabolization product and A0 for the initial concentration of the metabolization product. Therefore, a determination of Amax and the time constant tau is possible based on the above equation.
wherein RPDB corresponds to the value 0,011237 (Pee-Dee-Belemnite-standard of the ^13CO2/^12CO2-ratio), P to the CO2 production rate, M to the molar mass of the administered substance and BW to the body weight of the person.
In an embodiment of the present method the determination of the liver performance of a human occurs according to a scheme as shown in FIG. 2. During this measurement course the metabolization is started by the intravenous administering of the substrate to be metabolized, in particular ^13C methacetin 1 in combination with an isotonic sodium chloride solution 1a.
Beside an enzymatic activation of the substrate in particular by the P450 oxygenases also a release or activation of the substrate by the means of radiation or other fast processes is conceivable. The released metabolization product for instance ^13CO2 is transported via the blood into the lung and is there exhaled. The exhalation air is continuously transported into the measuring device 2, e.g., via a breathing mask and a connecting tube and is analyzed by the means of a computer 3 (Stockmann et al., Annals of Surgery, 2009, 250: col. 119-125). A measuring device suitable for the present method is for instance described in WO 2007/107366 A1.
Due to the specific measuring device being applied it is possible to follow the metabolization of the substrate in each breath in real time. This is emphasized in FIG. 3. […] Thereby 1 DOB indicates a change of the ^13CO2 to ^12CO2 ratio at about thousandth part over the natural ratio. As described before, Amax or DOBmax as well as the time constant tau are deducible from said slope. After the ^13CO2 increase has reached a maximum a decrease of the ^13CO2 concentration occurs what can be attributed to further dynamic processes in the body which contribute to the degradation of the measured signal.
described metabolization dynamics it is possible to follow directly and immediately the metabolization of the administered substrate by the enzymes present in the liver. If methacetin is administered as substrate, it is demethylated by the enzyme CYP1A2. […]

[3] = in vivo

Structure (SMILES) | time constant τ1 for the initial fast concentration increase ([1]; Paracetamol formed from 13C methacetin) [min] | time constant τ2 for the subsequent decelerated concentration increase ([1]; further distribution in the blood) [min] | measured maximum value A of the 13CO2 increase in the breathing air ([2]; FIG. 7, curve A, determined data points) | time constant tau for the conversion ([2]; FIG. 7, curve B, fit of the initial 13CO2 increase) [min] | amplitude Amax of the fitted function ([2]; FIG. 7, curve B, fit with solution of a differential equation of first order) | maximum conversion ([2]; after the operation, residual liver volume 625 ml) [µg/h/kg] | maximum conversion LiMAx ([2]; before the liver operation, total liver volume 1450 ml) [µg/h/kg] | maximum conversion LiMAx ([2]; cirrhosis of the liver (FIG. 4b)) [µg/h/kg] | maximum conversion LiMAx ([2]; corresponding to the aspired residual liver volume of 698 ml (rule of three)) [µg/h/kg] | maximum conversion LiMAx ([2]; heavy liver damages (FIG. 4c)) [µg/h/kg] | maximum conversion LiMAx ([2]; liver failure (FIG. 4d)) [µg/h/kg] | maximum conversion LiMAx ([2]; normal liver performance (FIG. 4a)) [µg/h/kg] | initial concentration in the blood [3] [µg/mL]
CC(=O)Nc1ccc(O)cc1 [Paracetamol] | 1.3 | 16 | – | – | – | – | – | – | – | – | – | – | –
CC(=O)Nc1ccc(O[13CH3])cc1 [^13C methacetin, ^13C-methacetin] | – | – | 22,01 DOB | 2.42 | 22,09 DOB | 169 | 307 | 307 | 165 | 144 | 55 | 504 | 20
